Laboratory results taken from patent publication US6667053B1, “D and L etherlipid stereoisomers and liposomes” (Elan Pharmaceuticals, Inc., priority 1996, dated 2003).
Where two headings read alike, the source gives them in different places. Each block holds one molecule with its values, some of them ahead of it.

How the values were obtained:
Assay type in all cases: cell-based
[1] = tested on: PAF binding sites on dog blood platelets; assay: Platelet aggregation response in dog whole blood with and without CV-6209; conditions: PAF alone, concentration 0.05 μM
Procedure: (§1) The platelet aggregation effect of the liposomes in the whole blood of various mammals was evaluated using a CHRONO-LOG Dual Chamber Whole Blood Aggregometer Model 560, according to the following protocol:
(§2) Immediately following collection the blood was mix by gentle inversion (maintain at room temperature). Prewarm 500 ul saline in disposable plastic cuvettes. Add 500 ul whole blood or PRP. Add disposable siliconized mini stir bar. Warm diluted blood 5 min at 37° C. prior to testing. Add test samples to aggregation chambers and insert impedance probes.
(§3) Platelet aggregation response was determined by increased resistance using an impedance electrode in a platelet suspension. Resistance measurements were taken 6-8 minutes after addition of the test article to 1 ml whole blood or platelet rich plasma (PRP).
To further investigate the platelet aggregation response triggered by the L-ether lipid in dog whole blood, the effect of a compound (CV-6209) that binds PAF binding sites on dog blood platelets was studied.

[2] = tested on: platelets in rat whole blood; assay: Platelet aggregation response in whole blood (impedance aggregometer), rat blood
Procedure: as §1
(§4) Venous blood was collected using 3.8% sodium citrate in a Vacutainer. Dilution ratio is 1 to 9 (citrate solution: blood). The effect of D and L etherlipid and liiposmes containing them on aggregation of platelets from rats, dogs, monkeys and humans was tested.
as §2, §3

[3] = tested on: platelets in dog whole blood; assay: Platelet aggregation response in whole blood (impedance aggregometer), dog blood
Procedure: as §1, §4, §2, §3

[4] = tested on: platelets in human whole blood; assay: Platelet aggregation response in whole blood (impedance aggregometer), human blood
Procedure: as §1, §4, §2, §3

[5] = tested on: MCF 7/adr, multi-drug resistant human breast carcinoma; assay: In vitro growth inhibition, SRB assay, MCF7/adr; conditions: 72 hrs treatment, read-out: In vitro growth inhibition GI50 (± sd), MCF7/adr
Procedure: (§5) The anti-tumor activities of the D and L etherlipid were evaluated against A549, a human non-small cell lung carcinoma cell line; MCF 7, a human breast carcinoma line and MCF 7/adr, multi-drug resistant human breast carcinoma; were obtained from the DCT Tumor Repository (NCI-Frederick Cancer Research Facility, Frederick, Md.). U-937, a human histiocytic lymphoma cell line, was obtained from the American Type Culture Collection. Stock cultures of these human cell lines were maintained in RPMI 1640 tissue culture media (Life Technologies, Gaithersburg, Md.) supplemented with 10% heat inactivated fetal bovine serum (Life Technologies) and 10 mM HEPES (Life Technologies). Cultures were maintained in exponential growth in a humidified incubator with 5% CO2 and were passaged twice weekly. L1210 and L1210/vmdr, murine lymphocytic leukemias, (Yale University School of Medicine). L1210/vmdr, a selected line of L1210, was transfected with a plasmid (pHaMDR1/A) containing the mdr 1 gene.
(§6) The detailed methodology of the SRB assay is described elsewhere (2,3). […] The bound stain was solubilized with 100 ul of 10 mM Tris buffer (Sigma) and the optical density was read spectrophotometrically at 490 nm (Microplate Reader Model 3550-UV, Biorad, Hercules, Calif.). […] Percent growth was calculated as follows: (T−T0)/(C−T0)×100 where (T)=mean optical density of treated wells at a given drug concentration, (T0)=mean optical density of time zero wells, and (C)=mean optical density of control wells, or if T<T0 where cell killing has occurred, then percent cell death can be calculated as follows: (T−T0)/(T0)×100. By varying drug concentration, dose response curves were generated and the GI50 values were calculated. The GI50 values for each experiment were calculated using data obtained from three duplicate wells on two separate plates. The mean GI50 values and standard deviations were then calculated from the GI50's from each independent experiment.

[6] = tested on: U-937, a human histiocytic lymphoma cell line; assay: In vitro growth inhibition, SRB assay, U937; conditions: read-out: In vitro growth inhibition GI50 (± sd), U937
Procedure: as §5, §6

[7] = tested on: L1210 murine lymphocytic leukemia; assay: In vitro growth inhibition, SRB assay, L1210; conditions: read-out: In vitro growth inhibition GI50 (± sd), L1210
Procedure: as §5, §6

[8] = tested on: A549, a human non-small cell lung carcinoma cell line; assay: In vitro growth inhibition, Sulforhodamine B (SRB) assay, A549; conditions: read-out: In vitro growth inhibition GI50 (± sd), A549
Procedure: as §5, §6

[9] = tested on: L1210/vmdr murine lymphocytic leukemia (mdr 1 transfected); assay: In vitro growth inhibition, SRB assay, L1210/vmdr; conditions: for GI50: 72 hrs treatment, read-out: In vitro growth inhibition GI50 (± sd), L1210/vmdr
Procedure: as §5
(§7) The detailed methodology of the SRB assay is described elsewhere (2,3). Briefly, 96-well microtiter plates were inoculated with 100 ul of the above cell lines at optimal cell densities, 3500-15,000 cells/well, in medium (RPMI 1640 with L-glutamine (Mediatech, Herndon, Va.)) supplemented with 10% fetal bovine serum (Life Technologies) for all cell lines. The plates were then incubated for 24 hours at 37° C., 100% humidity, and 5% CO2. After the 24 hour incubation, 100 μl of medium was added to the designated time zero plates, then the plates containing adherent cell lines were acid fixed with 50 ul of 50% trichloroacetic acid (wt/vol) (Sigma, St. Louis, Mo.) and refrigerated at 4° C. for 1 hour (the suspension cell lines were acid fixed with 80% trichloroacetic acid). The supernatant was discarded and the plates were rinsed 6 times with water and air dried. […] The bound stain was solubilized with 100 ul of 10 mM Tris buffer (Sigma) and the optical density was read spectrophotometrically at 490 nm (Microplate Reader Model 3550-UV, Biorad, Hercules, Calif.). […] Percent growth was calculated as follows: (T−T0)/(C−T0)×100 where (T)=mean optical density of treated wells at a given drug concentration, (T0)=mean optical density of time zero wells, and (C)=mean optical density of control wells, or if T<T0 where cell killing has occurred, then percent cell death can be calculated as follows: (T−T0)/(T0)×100. By varying drug concentration, dose response curves were generated and the GI50 values were calculated. The GI50 values for each experiment were calculated using data obtained from three duplicate wells on two separate plates. The mean GI50 values and standard deviations were then calculated from the GI50's from each independent experiment.

[10] = tested on: MCF 7, a human breast carcinoma line; assay: In vitro growth inhibition, SRB assay, MCF7; conditions: 72 hrs treatment, read-out: In vitro growth inhibition GI50 (± sd), MCF7
Procedure: as §5, §6

Lewis Lung = assay: In vitro growth inhibition, SRB assay, Lewis Lung; conditions: 72 hrs treatment, read-out: In vitro growth inhibition GI50 (± sd), Lewis Lung
Procedure: as §7, with “dried. Then the test compound was added (100 ul aliquots) to the remaining (non-fixed) plates at 2 times the predetermined highest concentration and serially diluted across the plates. Growth control wells received an additional 100 ul of medium.” for “dried.”

[11] = Homo sapiens, U-937, 72 hrs treatment
[12] = Mus musculus, L1210, 72 hrs treatment
[13] = Homo sapiens, A549, 72 hrs treatment

Molecule: 1-O-2-acetyl-sn-glycero-3-phosphocholine [PAF]
Dog Blood Response [1]: 23.5 Ω
Rat Blood Response ([2]; concentration 0.05 μM): 0 Ω
Dog Blood Response ([3]; concentration 0.05 μM): 14.8 Ω
Human Blood Response ([4]; concentration 0.05 μM): 6.0 Ω

Molecule: CCCCCCCCCCCCCCCCCCOCC(COP(=O)([O-])OCC[N+](C)(C)C)OC (racemic) [rac-EL]
GI50 [5]: 27.8 ± 0.3 µM
GI50 ([6]; 72 hrs treatment): 1.5 ± 0.22 µM
GI50 ([7]; 72 hrs treatment): 4.18 ± 1.38 µM
GI50 ([8]; 72 hrs treatment): 8.36 ± 0.67 µM
GI50 [9]: 6.09 ± 2.15 µM
GI50 [10]: 15.9 ± 6.41 µM
GI50 (Lewis Lung): 27.1 ± 1.98 µM

Molecule: Nc1ncnc2c1ncn2[C@@H]1O[C@H](COP(=O)(O)OP(=O)(O)O)[C@@H](O)[C@H]1O [ADP]
Rat Blood Response ([2]; concentration 20 μM): 2.0 Ω
Dog Blood Response ([3]; concentration 20 μM): 4.0 Ω
Human Blood Response ([4]; concentration 20 μM): 6.3 Ω

GI50 ([5]; Homo sapiens, NCI/ADR-RES): 25.1 ± 1.69 µM
GI50 [6, 11]: 1.41 ± 0.29 µM
GI50 [7, 12]: 3.6 ± 1.59 µM
GI50 [8, 13]: 7.96 ± 0.57 µM
GI50 ([9]; Mus musculus): 4.87 ± 0.77 µM
GI50 ([10]; Homo sapiens, MCF7a): 14.6 ± 5.92 µM
Molecule: CCCCCCCCCCCCCCCCCCOC[C@@H](COP(=O)([O-])OCC[N+](C)(C)C)OC [D-EL, 3-O-octadecyl-2-O-methyl-sn-glycero-1-phosphocholine]
activity against L1210/vmdr compared to L-EL and the racemate ([9]; 72 hrs): slight but statistically significant greater activity
GI50 (Lewis Lung; Lewis lung carcinoma): 25.4 ± 0.95 µM

GI50 ([5]; Homo sapiens, NCI/ADR-RES): 27.9 ± 2.1 µM
GI50 [6, 11]: 1.53 ± 0.42 µM
GI50 [7, 12]: 4.77 ± 0.41 µM
GI50 [8, 13]: 9.07 ± 0.39 µM
GI50 ([9]; Mus musculus): 8.77 ± 1.47 µM
GI50 ([10]; Homo sapiens, MCF7a): 18.6 ± 4.57 µM
Molecule: CCCCCCCCCCCCCCCCCCOC[C@H](COP(=O)([O-])OCC[N+](C)(C)C)OC [L-EL, 1-O-octadecyl-2-O-methyl-sn-glycero-3-phosphocholine]
GI50 (Lewis Lung; Lewis lung carcinoma): 29.1 ± 2.05 µM

Molecule: collagen
Rat Blood Response ([2]; concentration 20 μg/μL): 34.1 Ω
Dog Blood Response ([3]; concentration 20 μg/μL): 12 Ω
Human Blood Response ([4]; concentration 20): 36 Ω
